Experimental data from paper PMC3882073 (European neuropsychopharmacology : the journal of the …, 2012).
Counter-ions that a name gives are not always drawn.

Key:
[1] = tested on: AMPH-induced DA release in prefrontal cortex (PFC); assay: Amphetamine; assay type: in vivo, rat
[2] = tested on: basal dopamine (DA) levels in prefrontal cortex (PFC); assay: Basal dopamine levels in PFC, in vivo microdialysis; set-up: species or system rat
[3] = tested on: AMPH-induced DA release in striatum; assay: Amphetamine; assay type: in vivo, rat
[4] = tested on: psychotomimetic effects of ketamine; details: ref D’Souza et al., 2012, cited from earlier work
[5] = experiments involving Org25935 and DCS

## NCC(=O)O [Glycine]
[1]; in the presence of PCP, glycine 16% by diet 2 weeks, positive control, 60–210 min
  Effect on AMPH-induced DA release in PFC: significantly reduced DA release

## COc1ccc2c(c1)CC[C@H](CN(C)CC(=O)O)[C@@H]2c1ccccc1 [Org25935]
[2]; Org25935 5 mg/kg, across control and PCP treatment conditions, post-hoc LSD
  Effect on basal DA levels: significant increase in basal DA levels
[2]; Org25935 10 mg/kg, across control and PCP treatment conditions, post-hoc LSD
  Effect on basal DA levels: non-significant decrease
[1]; Org25935 5 mg, in the absence of PCP
  Effect on AMPH-induced DA release in PFC: no significant effect on AMPH-induced DA release
[1]; Org25935 5 mg, in the presence of PCP vs PCP alone, 60–210 min
  Effect on AMPH-induced DA release in PFC: did not significantly reduced AMPH-induced DA release
[1]; Org25935 10 mg, in the absence of PCP
  Effect on AMPH-induced DA release in PFC: no significant effect on AMPH-induced DA release
[1]; Org25935 10 mg, in the presence of PCP vs PCP alone, 60–210 min
  Effect on AMPH-induced DA release in PFC: effective
[1]; Org25935, across doses, entire 0–210 min interval
  Effect on AMPH-induced DA release in PFC: significantly inhibited AMPH-induced DA release
[3]; [5]
  Effect of drug treatment on AMPH-induced DA release in striatum: no significant effects
[4]; acute challenge study
  Total symptoms induced by ketamine: reversed
[4]; healthy volunteers
  Acute psychotomimetic effects of ketamine: reverse acute psychotomimetic effects of ketamine
[4]; humans
  Safety in human use: safe in human use

## N[C@@H]1CON=C1O [DCS, D-cycloserine]
[2]; DCS 30 mg/kg ip per day 2 weeks
  Effect on basal DA levels: no significant effect on basal DA levels
[1]; DCS 30 mg/kg ip per day 2 weeks, 60–210 min time period
  Effect on AMPH-induced DA release in PFC: significantly reduced AMPH-induced DA release
[1]; DCS 30 mg/kg ip per day 2 weeks, in the absence of PCP
  Effect on AMPH-induced DA release in PFC: no significant effect on AMPH-induced DA release
[1]; summary statement (abstract)
  Effect on PCP-induced enhancement of DA release in prefrontal cortex: significantly reduced PCP-induced enhancement of DA release in prefrontal cortex
[3]; [5]
  Effect of drug treatment on AMPH-induced DA release in striatum: no significant effects

## c1ccc(C2(N3CCCCC3)CCCCC2)cc1 [PCP, Phencyclidine hydrochloride]
[2]; Org25935 experiments, PCP 15 mg/kg/d minipump alone (vehicle), mean ± std dev
  Mean basal dopamine (DA) levels in PFC: 1.03 ± .80 (16) pg/10 μl
[2]; PCP 15 mg/kg/d, experiments involving Org25935
  Effect on basal DA levels: no significant effect on basal DA levels
[2]; R231857/60 experiments, rmANOVA
  Effect of treatment on basal DA levels: Neither PCP (F1,49=.2, p=.6) nor R231857/R231860 (F3,49=.5, p=.7) treatment significantly altered basal DA levels
[1]; Org25935 experiments, PCP 15 mg/kg/d, 0–210 min after AMPH 1 mg/kg sc
  Effect of PCP on AMPH-induced DA release in PFC: significantly increased AMPH-induced DA release
[3]; [5]
  Effect of PCP on AMPH-induced DA release in striatum: no significant effects
[3]; summary statement (abstract)
  Effect on striatal DA release: Neither PCP nor GTIs significantly affected striatal DA release
